Reference: patent publication US12465618B2, “Compositions and methods for degenerative disc regeneration” (University Health Network, priority 2015, dated 2025)

What was measured:
[1] = tested on: human degenerative disc NP cells; assay: Caspase 3/7 Lumi-Glo assay, cytokine induced; assay type: cell-based; details: 48 hrs
Experimental: (§1) Apoptosis induced in NP cells (rat and human) as result of treatment with pro-inflammatory cytokines (IL-1β and TNFα) was determined using Caspase 3/7 and Caspase 9 specific Lumi-Glo assays (Promega, Madison). Briefly, NP cells were plated and treated with either IL-1β alone or in combination with TNFα only or in presence of CTGF and TGFβ1 for 48 hrs, followed by addition of specific reagents for Caspase 3/7 and Caspase 9 as per the manufacturer's instructions. Cells were incubated for another 4 hrs at 37° C., and plates were read in a multi-well luminescence plate reader.

[2] = tested on: rat degenerative disc NP cells; assay: Caspase 3/7 Lumi-Glo assay, cytokine induced; assay type: cell-based; details: 48 hrs
Experimental: as §1

[3] = tested on: human degenerated disc NP cells; assay: BrdU-ELISA cell proliferation assay; assay type: cell-based; details: 72 hrs
Experimental: (§2) Nucleus pulposus cells (rat, bovine and human) were plated in 96-well flat bottom plates in order to evaluate the effect of treatment with growth factors in cell viability and proliferation assays. Rat NP cells were treated with CTGF, WISP-2 and TGFβ1 in a dose (1 ng/mL-100 ng/mL) and time dependent manner (24 hrs-96 hrs) to determine the optimum dose and time for the assessment of these growth factors on viability. Cell viability was determined using 3-(4,5-dimethylthiazol-2-yl)-2,5-diphenyltetrazolium bromide (MTT, Sigma-Aldrich, USA) as previously described^44. A BrdU-ELISA (colorimetric) assay (Cat #ab126556, Abcam) was used for determining the effect of treatment with CTGF or TGFβ1 on human and rat NP cells (healthy/injured) following the manufacturer's instructions. Briefly, NP cells were treated with CTGF or TGFβ1 alone or in combination for 48 hrs following addition of BrdU reagent O/N in each well. Incorporated BrdU in DNA of proliferating cells was determined using anti-BrdU antibody and quantified by ELISA as per the manufacturer's instructions.

[4] = tested on: rat NP cells (healthy/injured); assay: BrdU-ELISA cell proliferation assay; assay type: cell-based; details: rat-tail (healthy/injured) NP cells, 72 hrs
Experimental: as §2

[5] = tested on: human degenerative disc NP cells; assay: Caspase 9 Lumi-Glo assay, cytokine induced; assay type: cell-based; details: 48 hrs
Experimental: as §1

[6] = tested on: rat-tail injured disc NPs; assay: Pre-clinical rodent needle puncture disc injury model of DDD, intra-discal injection; assay type: in vivo, Wistar rat
Experimental: 12-week old female Wistar rats (Charles River Laboratories International, Inc., MA, USA) were used in order to develop a pre-clinical rodent model of DDD and to evaluate the therapeutic potential of NCCM, CTGF and TGFβ1 in these pre-clinical rodent models. Experiments were performed in accordance with the Guide for the Care and Use of Laboratory Animals, and the experimental protocols were approved by the ethics approval board of Toronto Western Hospital, Toronto, ON, Canada. The surgical procedure was as follows: Anesthesia was achieved using isofluorane (5 L/min plus 1 L/min O2) and maintained at 3 L/min. Once deeply anaesthetized, the animal was affixed on a stereotactic procedure apparatus (Model 900, Kopf Instruments California USA) with nose cone inhalation. For animal experiments, the tail was shaved and prepped with isopropanol in a sterile manner. Fluoroscopy was used to visualize needle penetration and to ensure that the needle penetrated into the center of the NP. For disc injury, a 26-gauge (G), 35° beveled, 0.75 inches high needle (Hamilton Company, USA) mounted on a Hamilton syringe was used. The needle was advanced completely through the selected tail IVD to penetrate the full thickness inclusive of the annulus fibrosus on both sides of the disc. Confirmation of needle placement was made using fluoroscopy and maintained in position for 2 minutes, withdrawn halfway to the center of the NP and left there for 1 minute and then slowly withdrawn completely over a 1-minute period. The animals were then removed from the stereotactic apparatus and allowed to recover in a warmed cage. At the end of study period i.e. 72 hrs-10 weeks, animals were humanely euthanized using CO2 and each vertebral lumbar/caudal motion segment was dissected aseptically. IVDs were either fixed in formalin for histological analysis or the nucleus pulposus (healthy/injured) was harvested and lysed in RIPA buffer (50 mM Tris, pH=7.4, 150 mM NaCl, 1% NP-40 and protease inhibitor cocktail) for western blotting.
To determine the regenerative potential of NCCM, CTGF or TGFβ1, 4 IVDs per animal of 12 week old rats were injured using a 26G needle as described above. Four weeks post-injury, animals were randomized into groups of six and an intra-discal injection (˜8 μL) of either NCCM, CTGF (100 ng/mL) or TGFβ1 (10 ng/mL) was given under local anesthesia. For NCCM injected animals, the control group consisted of animals that received an intra-discal injection (˜8 μL) of Hybridoma culture medium only, while phosphate buffered saline (PBS, 1×, pH=7.2) served as control for CTGF and TGFβ1 injected animal groups. Six weeks later, the NPs from injured and control discs were harvested and either fixed in formalin for histological analysis or lysed in RIPA lysis buffer for western blotting. Each of this experiment was repeated independently to ensure reproducibility.
The tissues were fixed in 10% formalin and decalcified in 10% EDTA solution. The decalcified disc was initially split in the mid sagittal plane, embedded in paraffin and 5p thick sections were obtained for histological evaluation. Hemaetoxylin and eosin (H&E) and Safranin-O staining was performed to assess general morphology and proteoglycan content in these tissue sections as previously described^16. For immunohistochemistry/immunofluorescence (IF), paraffin-embedded sections (5 μm) of human degenerative disc NP, bovine NP, healthy canines (NCD) and rat (healthy/injured) discs were deparaffinized in xylene, hydrated in gradient alcohol followed by antigen retrieval in Tris-EDTA buffer (pH=9.0). The sections were incubated with hydrogen peroxide (0.3% v/v) in methanol for 15 minutes to quench the endogenous peroxidase activity, followed by blocking with 10% serum to preclude non-specific binding. Thereafter, the slides were incubated with either rabbit or goat polyclonal/mouse monoclonal primary antibodies overnight (O/N) at 4° C. […]

[7] = rat tail injured discs, western blots, FIG. 12(b)

TGFβ1: Human recombinant transforming growth factor beta 1, Peprotech cat #100-21, identified in NCCM
cytokine (IL-1β and TNFα)-induced caspase 3/7 activity [1]: significant decrease
cytokine (IL-1β and TNFα)-induced caspase 3/7 activity [2]: significant decrease
DNA synthesis (BrdU incorporation) [3]: Significant increase
DNA synthesis (BrdU incorporation) [4]: Significant increase
IL-1β and TNFα induced caspase 9 activity [5]: significant reduction
aggrecan and collagen II (immunohistochemical analysis) ([6]; intra-discal injection four weeks following injury, 10 weeks post-injury, vs vehicle control): strong expression
histological analysis, Safranin-O staining of NP ([6]; intra-discal injection four weeks following injury, CTGF 100 ng/mL, TGFβ1 10 ng/mL, 10 weeks post-injury, vs PBS): healthy disc, rich in NCs
expression of MMP-13 and Cox2 in NP tissue lysates [6, 7]: decreased expression
stem cell marker Oct4 in NP tissue lysates [6, 7]: restoration
